Measured values taken from the CheMixHub viscosity set.

Assay: xn = mol fraction of the nth substance listed

CCCNCCC + C1CCCCC1
viscosity [mPa·s], 101 kPa
Conditions | x1 = 0.01137 | x1 = 0.02125 | x1 = 0.03212 | x1 = 0.0414 | x1 = 0.05092 | x1 = 0.06219 | x1 = 0.07269 | x1 = 0.08114 | x1 = 0.09193
303.15 K | 0.8095 | 0.8028 | 0.7945 | 0.784 | 0.7745 | 0.7633 | 0.7535 | 0.7441 | 0.7334
313.15 K | 0.7072 | 0.6995 | 0.692 | 0.6827 | 0.6721 | 0.6596 | 0.649 | 0.6399 | 0.6296

Cc1ccccc1[N+](=O)[O-] + CN1CCC[C@H]1c1cccnc1
viscosity [mPa·s], 101.33 kPa
Conditions | x2 = 0.1058 | x2 = 0.2027 | x2 = 0.2928 | x2 = 0.4027 | x2 = 0.4939 | x2 = 0.5968 | x2 = 0.6894 | x2 = 0.7864 | x2 = 0.8909
298.15 K | 2.229 | 2.424 | 2.583 | 2.775 | 3.008 | 3.117 | 3.335 | 3.47 | 3.697
323.15 K | 1.405 | 1.481 | 1.557 | 1.625 | 1.7 | 1.764 | 1.909 | 1.919 | 2.002

CC(=O)[O-].CCCC[NH2+]CCO + CCCCn1cc[n+](C)c1.O=S(=O)([N-]S(=O)(=O)C(F)(F)F)C(F)(F)F
Conditions | viscosity [mPa·s]
308.15 K, 101 kPa, x1 = 0.901 | 343.5

CC1CCCCC1 + C1COCCO1
303.15 K, 101.3 kPa
Conditions | viscosity [mPa·s]
x2 = 0.1001 | 0.6334
x2 = 0.2013 | 0.6394
x2 = 0.296 | 0.653
x2 = 0.3948 | 0.6802
x2 = 0.5046 | 0.7196
x2 = 0.5993 | 0.7612
x2 = 0.7003 | 0.8213
x2 = 0.7956 | 0.8868
x2 = 0.896 | 0.9775

CCCNCCC + c1ccccc1
viscosity [mPa·s], 101 kPa
Conditions | x1 = 0.0105 | x1 = 0.02072 | x1 = 0.0306 | x1 = 0.03896 | x1 = 0.05078 | x1 = 0.06138 | x1 = 0.07232 | x1 = 0.08121 | x1 = 0.09171
303.15 K | 0.5622 | 0.5617 | 0.561 | 0.5607 | 0.5602 | 0.5588 | 0.5575 | 0.5554 | 0.5542
313.15 K | 0.4915 | 0.4902 | 0.4897 | 0.489 | 0.488 | 0.4872 | 0.4861 | 0.4851 | 0.4839

OC1CCCCCCC1 + OCCO
viscosity [mPa·s], 100 kPa
Conditions | 293.15 K | 298.15 K | 303.15 K | 308.15 K | 313.15 K | 318.15 K
x1 = 0.0094 | 20.68 | 16.94 | 13.8 | 11.25 | 9.588 | 7.888
x1 = 0.0394 | 21.39 | 17.13 | 13.91 | 11.23 | 9.61 | 7.891
x1 = 0.0577 | 21.55 | 17.25 | 13.99 | 11.26 | 9.627 | 7.892
x1 = 0.0877 | 21.87 | 17.42 | 14.13 | 11.32 | 9.649 | 7.894
x1 = 0.0999 | 21.97 | 17.51 | 14.16 | 11.34 | 9.664 | 7.895
x1 = 0.196 | 23.21 | 18.26 | 14.61 | 11.54 | 9.751 | 7.903
x1 = 0.3048 | 24.11 | 20.09 | 15.23 | 11.92 | 9.992 | 7.975
x1 = 0.3968 | 28.39 | 21.73 | 16.84 | 13.28 | 11.14 | 9.079
x1 = 0.4992 | 32.09 | 25.61 | 20.38 | 16.11 | 13.47 | 10.83
x1 = 0.5876 | 42.39 | 31.92 | 25.48 | 19.91 | 16.45 | 13.04
x1 = 0.6991 | 59.53 | 45.81 | 35.59 | 27 | 21.75 | 16.79
x1 = 0.7995 | 87.86 | 66.12 | 49.1 | 35.98 | 28.14 | 21.15
x1 = 0.8976 | 130 | 94 | 71 | 49.5 | 39 | 28

CCCCCCCCCl + CCCCCCCCCCCC
298 K, 101.3 kPa
Conditions | viscosity [mPa·s]
x2 = 0.1064 | 1.143
x2 = 0.2068 | 1.151
x2 = 0.308 | 1.177
x2 = 0.4061 | 1.185
x2 = 0.5066 | 1.218
x2 = 0.6038 | 1.232
x2 = 0.6927 | 1.262
x2 = 0.7984 | 1.288
x2 = 0.8945 | 1.317
